A short description of data set [1]: Insulin peptide degradation by GI extracts in presence of BBI. To be noted: rat; for half-life at 10 µM: male, Sprague Dawley, real gastrointestinal fluid or homogenate. Format: in vitro ADME, Sprague Dawley rats. The protocol:
96 well plates were coated by incubating with 0.4% BSA solution for minimum of 60 min. […] The plates were pre-incubated (before adding GI juice) for 60 min at 37° C. After addition of 30 μl of GI juice, the plates were incubated for 60 min/37° C. on shaker. Samples (40 μl) were taken at 0, 3, 6, 10, 30 and 60 min, stopped with 3 vol. cold 96% EtOH (ethanol) w. 1% HCOOH (formic acid) and centrifuged (4500 rcf for 10 min at 4° C.). The resulting supernatant from the samples were diluted 5 times with the buffer prior to LC-MS analysis. Standard samples (0.1, 0.5, 1.0, 5.0, 10.0 μM) were prepared and treated as the samples. Standard curve was analysed both at the beginning and the end of the sequence. Two replicates of each tested conditions were included. […] The results were plotted against the incubation time. […] GI juice was prepared from male Sprague Dawley rats (200-250 g) by excising approximately 20 cm piece of mid jejunum and rinsing the inside with 2.5 ml 0.9% sodium chloride solution. The sodium chloride solution was collected in a centrifuge tube, pooled from all rats (20) and centrifuged at 4500 rpm./10 min/4° C. The supernatant was aliquoted in tubes and stored at −80° C.

A short description of data set [2]: GLP-1 peptide degradation by GI extracts in presence of BBI. To be noted: half-life with 0.1% BBI divided by half-life without BBI, rat GI juice. The data set is classed as in vitro ADME, Sprague Dawley rats. The protocol:
96 well plates were coated by incubating with 0.4% BSA solution for a minimum of 60 min. To each well, 210 μl of buffer (HBSS-HEPES buffer with 0.005% Tween 20 and 0.005% BSA, pH 6.5), 30 μl of a substrate (100 μM GLP-1 peptide in buffer) and 30 μl of BBI (1%) were added. The plates were pre-incubated (before adding GI juice) for 60 min at 37° C. After addition of 30 μl of GI juice, the plates were incubated for 60 min/37° C. on shaker. Samples (40 μl) were taken at 0, 3, 6, 10, 30 and 60 min, stopped with 3 vol. cold 96% EtOH w. 1% HCOOH and centrifuged (4500 rcf for 10 min at 4° C.). The resulting supernatant from the samples were diluted 5 times with the buffer prior to LC-MS analysis. Standard samples (0.1, 0.5, 1.0, 5.0, 10.0 μM) were prepared and treated as the samples. Standard curve was analysed both at the beginning and the end of the sequence. Two replicates of each tested conditions were included. Intact GLP-1 peptide was determined in each sample. The results were plotted against the incubation time. Half-lives of the GLP-1 peptide was determined by nonlinear regression of the results using, for example Graph Pad Prism. The half-lives were expressed relative to the half-life of the GLP-1 peptide without BBI present by dividing the half-lives obtained in the presence of inhibitor with those obtained in the absence of BBI. […]

Data set [3] in a line: Transport of GLP-1 peptide across mucus-producing E12 cell monolayers in the presence of sodium caprate and BBI. Format: in vitro ADME. The conditions noted are these: for Papp A→B at 100 µM: human. The protocol: Buffer was then removed and the experiment initiated. […] Receiver samples (200 μl) were taken every 15 min.
In all samples with GLP-1 peptide and mannitol, the concentration of GLP-1 peptide was determined using a LOCI assay (or LC-MS assay) and scintillation counter, respectively.

The mark [4] stands for this setting: pH 7.4, apical to basolateral, 100 μM GLP-1 peptide + 13 mM sodium caprate, without BBI.
Where [5] appears, read: pH 7.4, apical to basolateral, 100 μM GLP-1 peptide + 13 mM sodium caprate + 0.2% BBI.

The source of these data is patent US20160106814A1, “Novel Oral Pharmaceutical Composition for Treatment of Diabetes” (NOVO NORDISK A/S, priority 2013, published 2016).

*1 amine or outer side, *2 acyl side, *3 side chain or, on linkers, in order; H or OH if unused. Bridges are numbered along the chain shown (N, C = ends). Roman numbers before positions name the chains, in order. Side-chain parts run from the residue outwards. The star is where a group is joined. C18 diacid = O=C(O)CCCCCCCCCCCCCCCCC(=O)*; NMe2Phe = CN(C)[C@@H](Cc1ccccc1)C(=O)*; γGlu = O=C(O)[C@H](CCC(=O)[*:2])N[*:1]; AEEA = NCCOCCOCC(=O)O; Me2Gly = CN(C)CC(=O)*

As usually defined, the half-life is the time needed for the level to fall by half in the phase considered. “I: NMe2Phe-VNQHLCGSHLVEALYLVCGERGFHYTPK([AEEA-AEEA-γGlu-C18 diacid])-OH / II: Me2Gly-IVEQCCTSICSLEQLENYCN-OH (disulfide I:6-II:6, I:18-II:19, II:5-II:10) [Insulin 2, N{A1},N{A1}-dimethyl,N{B1},N{B1}-dimethyl,N{Epsilon-B29}-[2-[2-[2-[[2-[2-[2-[[(4S)-4-carboxy-4-(17-carboxyheptadecanoylamino)butanoyl]amino]ethoxy]ethoxy]acetyl]amino]-ethoxy]ethoxy]acetyl]-[GluA14,HisB25],des-ThrB30-Insulin(human)]”: the half-life at 10 µM in data set [1] (pH 6.5, Half Life of insulin peptide) is 1.1 min; in data set [1] (pH 6.5, Half Life of insulin peptide in presence of 0.1% BBI), greater than 1000 min. In addition, in data set [1], the “Half Life (fold increase)” value is recorded as greater than 910 fold.

One may read the Papp A→B as the apparent permeability from the apical to the basolateral side of a cell layer. As for `CC[C@H](C)[C@H](NC(=O)[C@H](Cc1ccccc1)NC(=O)[C@H](CCC(=O)O)NC(=O)[C@H](CCCCNC(=O)COCCOCCNC(=O)COCCOCCNC(=O)CC[C@H](NC(=O)CCCCCCCCCCCCCCCCC(=O)O)C(=O)O)NC(=O)[C@H](C)NC(=O)[C@H](C)NC(=O)[C@H](CCC(N)=O)NC(=O)CNC(=O)[C@H](CCC(=O)O)NC(=O)[C@H](CC(C)C)NC(=O)[C@H](Cc1ccc(O)cc1)NC(=O)[C@H](CO)NC(=O)[C@H](CO)NC(=O)[C@@H](NC(=O)[C@H](CC(=O)O)NC(=O)[C@H](CO)NC(=O)[C@@H](NC(=O)[C@H](Cc1ccccc1)NC(=O)[C@@H](NC(=O)CNC(=O)[C@H](CCC(=O)O)NC(=O)C(C)(C)NC(=O)[C@@H](N)Cc1cnc[nH]1)[C@@H](C)O)[C@@H](C)O)C(C)C)C(=O)N[C@@H](C)C(=O)N[C@@H](Cc1c[nH]c2ccccc12)C(=O)N[C@@H](CC(C)C)C(=O)N[C@H](C(=O)N[C@@H](CCCNC(=N)N)C(=O)NCC(=O)N[C@@H](CCCNC(=N)N)C(=O)NCC(=O)O)C(C)C` [GLP-1 peptide 1, N{Epsilon-26}-[2-[2-[2-[[2-[2-[2-[[(4S)-4-carboxy-4-(17-carboxy-heptadecanoylamino)butanoyl]amino]ethoxy]ethoxy]acetyl]amino]ethoxy]ethoxy]acetyl]-[Aib8,Arg34]-GLP-1-(7-37)-peptide], in data set [2], the “Half Life (fold increase)” value is given as greater than 15 fold. Further, the Papp A→B at 100 µM in data set [3] (setting [4]) stood at 0.148 ×10⁻⁶ cm/s; in data set [3] (pH 7.4, with Bowman Birk inhibitor (BBI) 0.2%, apical to basolateral, 100 μM GLP-1 peptide + 13 mM sodium caprate + 0.2% BBI) it was 0.319 ×10⁻⁶ cm/s.

`CC[C@H](C)[C@H](NC(=O)[C@H](Cc1ccccc1)NC(=O)[C@H](CCC(=O)O)NC(=O)[C@H](CCCCNC(=O)COCCOCCNC(=O)COCCOCCNC(=O)CC[C@H](NC(=O)CCCCCCCCCOc1ccc(C(=O)O)cc1)C(=O)O)NC(=O)[C@H](C)NC(=O)[C@H](C)NC(=O)[C@H](CCC(N)=O)NC(=O)CNC(=O)[C@H](CCC(=O)O)NC(=O)[C@H](CC(C)C)NC(=O)[C@H](Cc1ccc(O)cc1)NC(=O)[C@H](CCCCNC(=O)COCCOCCNC(=O)COCCOCCNC(=O)CC[C@H](NC(=O)CCCCCCCCCOc1ccc(C(=O)O)cc1)C(=O)O)NC(=O)[C@H](CO)NC(=O)[C@@H](NC(=O)[C@H](CC(=O)O)NC(=O)[C@H](CO)NC(=O)[C@@H](NC(=O)[C@H](Cc1ccccc1)NC(=O)[C@@H](NC(=O)CNC(=O)[C@H](CCC(=O)O)NC(=O)C(C)(C)NC(=O)[C@@H](N)Cc1c[nH]cn1)[C@@H](C)O)[C@@H](C)O)C(C)C)C(=O)N[C@@H](C)C(=O)N[C@@H](Cc1c[nH]c2ccccc12)C(=O)N[C@@H](CC(C)C)C(=O)N[C@H](C(=O)N[C@@H](CCC(N)=O)C(=O)NCC(=O)N[C@@H](CCCNC(=N)N)C(=O)NCC(=O)O)C(C)C` [GLP-1 peptide 6, N{Epsilon-18}-[2-[2-[2-[[2-[2-[2-[[(4S)-4-carboxy-4-[10-(4-carboxyphenoxy)-decanoylamino]butanoyl]amino]ethoxy]ethoxy]acetyl]amino]ethoxy]ethoxy]acetyl], N{Epsilon-26}-[2-[2-[2-[[2-[2-[2-[[(4S)-4-carboxy-4-[10-(4-carboxyphenoxy)decanoylamino]butanoyl]-amino]ethoxy]ethoxy]acetyl]amino]ethoxy]ethoxy]acetyl]-[Aib8,Lys18,Gln34]-GLP-1-(7-37)-peptide]: the apparent permeability from apical to basolateral (Papp A→B) was found to be 0.296 ×10⁻⁶ cm/s in data set [3] (setting [5]) and 0.159 ×10⁻⁶ cm/s in data set [3] (setting [4]).

`CC[C@H](C)[C@H](NC(=O)[C@H](Cc1ccccc1)NC(=O)[C@H](CCC(=O)O)NC(=O)[C@H](CCCCNC(=O)COCCOCCNC(=O)COCCOCCNC(=O)CC[C@H](NC(=O)CCCCCCCCCCCCCCCCC(=O)O)C(=O)O)NC(=O)[C@H](C)NC(=O)[C@H](C)NC(=O)[C@H](CCC(N)=O)NC(=O)CNC(=O)[C@H](CCC(=O)O)NC(=O)[C@H](CC(C)C)NC(=O)[C@H](Cc1ccc(O)cc1)NC(=O)[C@H](CO)NC(=O)[C@H](CO)NC(=O)[C@@H](NC(=O)[C@H](CC(=O)O)NC(=O)[C@H](CO)NC(=O)[C@@H](NC(=O)[C@H](Cc1ccccc1)NC(=O)[C@@H](NC(=O)CNC(=O)[C@H](CCC(=O)O)NC(=O)C(C)(C)NC(=O)[C@@H](N)Cc1c[nH]cn1)[C@@H](C)O)[C@@H](C)O)C(C)C)C(=O)N[C@@H](C)C(=O)N[C@@H](Cc1c[nH]cn1)C(=O)N[C@@H](CC(C)C)C(=O)N[C@H](C(=O)N[C@@H](CCC(N)=O)C(=O)NCC(=O)N[C@@H](CCCNC(=N)N)C(=O)NCC(=O)O)C(C)C` [GLP-1 peptide 8, N{Epsilon-26}-[2-[2-[2-[[2-[2-[2-[[(4S)-4-carboxy-4-(17-carboxy-heptadecanoylamino)butanoyl]amino]ethoxy]ethoxy]acetyl]amino]ethoxy]ethoxy]acetyl]-[Aib8,His31,Gln34]-GLP-1-(7-37)-peptide]: the Papp A→B worked out at 0.363 ×10⁻⁶ cm/s in data set [3] (setting [5]) and 0.184 ×10⁻⁶ cm/s in data set [3] (setting [4]).
